Data: patent US10227331B2 (priority 2015, dated 2019)
pIC50: −log10 of the molar value.

Legend:
NDM-1 = NDM-1 (Klebsiella pneumoniae, UniProt C7C422); experiment: biochemical; format: biochemical; conditions: CCF2-FA substrate, 2 hours at 25° C; read-out: NDM-1 IC50
Method in brief: (§1)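 IC50 values derive from 4-parameter fits of percent inhibition against inhibitor concentration on semi-log axes. Activity was monitored by fluorescence with the CCF2-FA substrate after a 2-hour, 25° C incubation of compound, enzyme and substrate.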

IMP-1 = IMP-1 (Serratia marcescens, UniProt P52699); experiment: biochemical; format: biochemical; conditions: CCF2-FA substrate, 2 hours at 25° C; read-out: IMP-1 IC50
Method in brief: as §1

[1] = tested on: P. aeruginosa expressing IMP-1, efflux− (MB9799); experiment: Efflux: concentration of MBL inhibitor which restores susceptibility to imipenem; format: cell-based, Pseudomonas aeruginosa; conditions: imipenem at 2 μg/mL, in the presence of a class A, C, D serine β-lactamase inhibitor closely related to relebactam
Text: (§2) The strain background is Pseudomonas aeruginosa PAO1.

[2] = tested on: P. aeruginosa expressing IMP-1, efflux+ (MB9798); format: cell-based, Pseudomonas aeruginosa; conditions: for P. aeruginosa expressing IMP-1, efflux+ (MB9798) MITC95: imipenem at 2 μg/mL, in the presence of a class A, C, D serine β-lactamase inhibitor closely related to relebactam; for Efflux ratio: ratio MITC95 PA_9798/MITC95 PA_9799
Text: as §2

[3] = tested on: Klebsiella pneumoniae expressing VIM-1 (IHMA599644); format: cell-based; conditions: with imipenem 1 μg/ml, 95% inhibition of bacterial growth; for Klebsiella pneumoniae MITC95: VIM-1 (IHMA599644)
Method in brief: (§3)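 Restoration of imipenem susceptibility (1 μg/ml imipenem) was judged by absorbance after 22–24 h at 35° C. Test compound was added to bacteria suspended 1:100 in 1.1× CAMHB from overnight blood-agar cultures.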

[4] = tested on: Escherichia coli expressing NDM-1 (CLB30005, CLB30016); format: cell-based; conditions: with imipenem 1 μg/ml, 95% inhibition of bacterial growth; for Escherichia coli MITC95: NDM-1 (CLB30016)
Method in brief: as §3

[5] = tested on: Serratia marcescens expressing IMP-1 (CL5741); format: cell-based; conditions: with imipenem 1 μg/ml, 95% inhibition of bacterial growth; for Serratia marcescens MITC95: IMP-1 (CL5741)
Method in brief: as §3

VIM-1 = VIM-1 (Pseudomonas aeruginosa (strain ATCC 15692 / DSM 22644 / CIP 104116 / JCM 14847 / LMG 12228 / 1C / PRS 101 / PAO1), UniProt A0A0F7KYQ8); experiment: biochemical; conditions: CCF2-FA substrate, 2 hours at 25° C
Method in brief: as §1

Sequence of IMP-1 (P52699 whole entry, looked up, species assumed): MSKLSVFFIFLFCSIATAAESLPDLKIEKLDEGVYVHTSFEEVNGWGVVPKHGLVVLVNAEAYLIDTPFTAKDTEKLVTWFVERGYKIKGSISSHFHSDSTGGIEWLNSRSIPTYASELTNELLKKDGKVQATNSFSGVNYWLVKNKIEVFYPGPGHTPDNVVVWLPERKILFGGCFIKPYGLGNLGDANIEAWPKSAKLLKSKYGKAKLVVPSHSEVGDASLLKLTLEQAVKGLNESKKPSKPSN
Sequence of NDM-1 (C7C422 whole entry, looked up, species assumed): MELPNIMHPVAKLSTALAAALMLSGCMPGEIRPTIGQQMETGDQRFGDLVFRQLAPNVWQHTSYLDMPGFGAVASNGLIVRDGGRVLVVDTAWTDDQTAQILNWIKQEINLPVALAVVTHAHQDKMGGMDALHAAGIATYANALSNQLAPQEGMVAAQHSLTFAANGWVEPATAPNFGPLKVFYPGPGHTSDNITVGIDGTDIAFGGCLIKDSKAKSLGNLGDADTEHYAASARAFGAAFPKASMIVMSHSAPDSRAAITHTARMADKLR

Compound	pIC50 (NDM-1)	pIC50 (IMP-1)	P. aeruginosa expressing IMP-1, efflux− (MB9799) MITC95 [1] [µM]	P. aeruginosa expressing IMP-1, efflux+ (MB9798) MITC95 [2] [µM]	Efflux ratio [2]	Klebsiella pneumoniae MITC95 [3] [µM]	Escherichia coli MITC95 [4] [µM]	Serratia marcescens MITC95 [5] [µM]	pIC50 (VIM-1)	Klebsiella pneumoniae expressing VIM-1 (IHMA599644) MITC95 [3] [µM]	Escherichia coli expressing NDM-1 (CLB30016) MITC95 [4] [µM]	Serratia marcescens expressing IMP-1 (CL5741) MITC95 [5] [µM]
Cn1nc(N)c2c(-c3ccc(S(=O)(=O)CCN)c(S(N)(=O)=O)c3-c3nnn[nH]3)cccc21 [Example 266, 3-(3-amino-1-methyl-1H-indazol-4-yl)-6-((2-aminoethyl)sulfonyl)-2-(1H-tetrazol-5-yl) benzenesulfonamide]	9.70	9.19	3.125	6.25	2.00	6.25	6.25	3.125	9.63			
NCCS(=O)(=O)c1ccc(-c2ccc3cccnc3c2)c(-c2nnn[nH]2)c1S(N)(=O)=O.O=C(O)C(F)(F)F [Example 159, 2-((4-(quinolin-7-yl)-2-sulfamoyl-3-(1H-tetrazol-5-yl)phenyl)sulfonyl)ethanaminium 2,2,2-trifluoroacetate]	8.96	9.31	1.563	12.5	8.00				9.58	3.125	1.563	3.125
NS(=O)(=O)c1c([S+]([O-])C2CNC2)ccc(-c2ccc(C3CCNCC3)cc2)c1-c1nn[nH]n1 (stereo not drawn) [Example 5, 4-(Azetidin-3-ylsulfinyl)-4′-(piperidin-4-yl)-2-(2H-tetrazol-5-yl)-[1,1′-biphenyl]-3-sulfonamide]	8.70	8.16	1.563	3.125	2.00				8.69	3.125	3.125	3.125
NCCS(=O)(=O)c1ccc(-c2cccc3cc(C(N)=O)[nH]c23)c(-c2nn[nH]n2)c1S(N)(=O)=O [Example 323, 7-(4-((2-aminoethyl)sulfonyl)-3-sulfamoyl-2-(2H-tetrazol-5-yl)phenyl)-1H-indole-2-carboxamide]	10.29	9.84	0.7813	0.7813	1.00	1.563	3.125	1.563	9.67			
NS(=O)(=O)c1c([S+]([O-])C2CCNCC2)ccc(-c2ccc(C3CCNCC3)cc2)c1-c1nnn[nH]1 (stereo not drawn) [Example 227, 4′-(piperidin-4-yl)-4-(piperidin-4-ylsulfinyl)-2-(1H-tetrazol-5-yl)-[1,1′-biphenyl]-3-sulfonamide]	8.71	8.23	1.563	3.125	2.00				8.93	6.25	3.125	6.25
